This note sets out measurements from ChEMBL document CHEMBL4017454, “Bioactive terpenoids from Silybum marianum and their suppression on NO release in LPS-induced BV-2 cells and interaction with iNOS” (Bioorg Med Chem Lett, 2017).

SMILES strings stand for the structures. pIC50: −log10 of the molar value.

Data set [1] concerns BV-2. Put plainly: Inhibition of LPS-induced NO production in mouse BV2 cells after 20 hrs by Griess assay. The data set is classed as functional, cell-based. As to conditions: BV-2, 20 h.
For data set [2], the system named is BV-2. Put plainly: Cytotoxicity against mouse BV2 cells assessed as cell survival by MTT assay. The data set is classed as cell-based.

`CSC(=N)N.O=S(=O)(O)O`: the negative-log IC50 (pIC50) (as a rule, −log10 of the IC50, conventionally taken in molar units) with BV-2 [1] was 5.60. The Activity entry in the data set on BV-2 [2] is listed as “Non-Toxic”.

Compound `CC1=C2C[C@H]([C@@](C)(O)CO)CC[C@@]2(C)[C@H](O)CC1=O` gave a pIC50 with BV-2 [1] of 5.17. Further, the Activity entry with BV-2 [2] is recorded as “Non-Toxic”.

In turn, `CC(C)(O)c1ccc(CO)c(O)c1` showed a pIC50 in the data set on BV-2 [1] of 4.82. In the data set on BV-2 [2], the Activity entry is listed as “Non-Toxic”.

On to `Cc1ccc([C@@H](C)CO)cc1O`, for which the pIC50 in the data set with BV-2 [1] was 4.75. In the data set with BV-2 [2], the Activity result was “Non-Toxic”.

On to `CC(C)(O)c1ccc(CO)c(O[C@@H]2O[C@H](CO)[C@@H](O)[C@H](O)[C@H]2O)c1`, for which the pIC50 with BV-2 [1] is 4.85. Further, in the data set on BV-2 [2], the Activity entry is on record as “Non-Toxic”.
